# Measured values taken from US11730730B2, “Cell-based screening and compounds that modulate GalNAc-transferases” (Carnegie Mellon University, priority 2018, dated 2023).
# pIC50, pKd, pKi: −log10 of the molar value. Like-named read-outs stand apart in the source and are kept apart here.
# Tests used:
# ppGalNAc-T2 = ppGalNAc-T2 (Homo sapiens, UniProt Q10471); conditions: HEK cells expressing T2 sensor, 6 h, 0-50 μM
# Description: (§1) Primary screen. HEK cells stably expressing the T2 sensor (containing ANGPTL3 linker sequence with T225G modification) or the T3 sensor (containing FGF23-based linker) were cultured in MEM (Corning, N.Y., Cat #10-010-CV) with 10% fetal bovine serum (FBS, Atlanta Biologicals, Flowery Branch, Ga., Cat #5111150) and 100 IU/ml penicillin-streptomycin (Sigma-Aldrich, Cat #P4333) at 37° C., 5% CO2. Positive controls were cell lines expressing matched sensors with the glycosylation site mutated (Δglycan), specifically T225G/T226G and T178G for the T2 and T3 sensors, respectively. Cells (50,000/well) were seeded in flat bottom 96-well-plates (Corning, N.Y., Cat #3997) and grown for 24 h. Compounds (the diversity set from ChemBridge Corporation (Chicago, Ill.) and the approved oncology drugs set V and the diversity set II from the National Cancer Institute Developmental Therapeutics Program) were then added to achieve a 10 μM final concentration. […] The plates were then transferred to an Accuri™ C6 flow cytometer (BD Biosciences) where GFP and MG fluorescence was measured using 488 nm and 640 nm for 10,000 cells per well. […]
# (§2) Titration assays. […] After 5 min at 37° C., fluorescence measurements (20,000 cells/well) were carried out as described above. […]
# ppGalNAc-T3 = ppGalNAc-T3 (Homo sapiens, UniProt Q14435); conditions: read-out: apparent IC50 of T3 sensor activation; HEK cells expressing T3 sensor, 6 h, 0-50 μM
# Description: as §1, §2
# purified ppGalNAc-T2 = purified ppGalNAc-T2 (Homo sapiens, UniProt Q10471); conditions: purified enzyme, in vitro glycosylation
# Description: (§3) A second stage reaction (UDP-GLO™) then converted the accumulated UDP product to ATP and then, via luciferase, to light.
# (§4) Secondary screen. Glycosylation assays using recombinant ppGalNAc-T2 and ppGalNAc-T3 were carried out using the UDP-GLO™ Glycosyltransferase assay kit (Promega, Madison, Wis., Cat #V6962), according to the manufacturer's recommendation. The reaction (25 μl) included 2.5 ng/μl purified enzyme, 25 μM UDP-GalNAc (Sigma-Aldrich, Cat #U5252), 12.5 μM EA2 peptide (AnaSpec, Mucin 10, AA153-165, […], Cat #AS-63841), 25 mM Tris-HCl (pH7.5) (Fisher Scientific, Cat #77-86-1), 5 mM MnCl2 (Fisher Scientific, Cat #M87-500), 2.5 mM CaCl2) (Fisher Scientific, Cat #C70-500) and 50 μM compound. The negative control was vehicle only (same reaction mixture with a matched percentage of DMSO instead of compound), whereas background was from the reaction carried out without enzyme and DMSO instead of compound. All reactions were incubated at 37° C. in a water bath for 30 min and then cooled to room temperature. Aliquots (5 μl) were then added to 384-well plate (Thermo Scientific, Waltham, Mass., Cat #164610) to which 5 μl of UDP Detection Reagent was also added. Duplicate measures were made for all reactions. After 1 h at room temperature the luminescent signals were determined using a Tecan Infinite M1000 (Tecan Group Ltd., Männedorf, Switzerland) with integration time set to 1000 msec. The background-subtracted average for each compound was expressed as a percentage of the negative control (taken as 100%). Compounds with ≥50% effect were considered direct modulators.
# (§5) Titration assays. For the sensor assay, about 200,000 cells expressing either sensor were seeded into Greiner Bio-One 24-well plates (Sigma-Aldrich, Cat #662160). After 24 h, the cells were incubated for another 6 h in the presence of 0-50 μM compound. To release the cells the medium was replaced with 200 μl 5 mM EDTA/PBS containing 110 nM MG dye. After 5 min at 37° C., fluorescence measurements (20,000 cells/well) were carried out as described above. For the biochemical assay, the assay conditions were identical except for variations in the compound or substrate concentrations as indicated in the figure legends. Data analysis was completed using Prism (Graph Pad Prism Inc., SCR_002798).
# purified ppGalNAc-T3 = purified ppGalNAc-T3 (Homo sapiens, UniProt Q14435); conditions: for Vmax: percent of control without inhibitor
# Description: as §3, §4, §5
# purified ppGalNAc-T6 = purified ppGalNAc-T6 (Homo sapiens, UniProt Q8NCL4); conditions: purified enzyme, in vitro glycosylation
# Description: as §4, with “Aliquots (5 μl) were then added to 384-well plate (Thermo Scientific, Waltham, Mass., Cat #164610) to which 5 μl of UDP Detection Reagent was also added. Duplicate measures were made for all reactions.” left out, “Compounds with ≥50% effect were considered direct modulators.” left out
# as §2
# [1] = molecular target: purified lumenal domain of ppGalNAc-T3 (Homo sapiens, UniProt Q14435)
# Text: Tryptophan fluorescence quenching assay. […] The value at the peak of emission at 324 nm was used for the binding curve analysis by Prism.
# HeLa cells [2] = conditions: 24 h treatment, 10 or 20 μM
# Description: Lectin staining. […] After staining, the cells were washed twice, lysed with 0.2% Triton X-100 (Fisher Scientific, Cat #BP151-100) for 15 min at 4° C., centrifuged at 14,000×g for 15 min at 4° C., and the supernatants were read in a Greiner Bio-One 96-well glass-bottom plate using a Tecan Infinite M1000 with excitation at 495 nm and emission from 510-550 nm. Three independent trials were carried out and the peak value (520 nm) was used for quantification.
# MCF7 cells = conditions: MCF7, 5 μM T3Inh-1, 24 h, Matrigel-coated filters
# Description: (§6) Cell invasion assay. Breast cancer MDA-MB231 cells were grown in DMEM medium (Corning, N.Y., Cat #10-013-CV) with 10% FBS and 100 IU/ml penicillin-streptomycin at 37° C. and 5% CO2 and then plated at a density of 1.32×104 in 0.3 ml of DMEM medium without FBS into the upper chamber of a BIOBOAT™ insert fitted with a 8.0 μm PET membrane (Corning, N.Y., Cat #354578). For migration assays, the filter was uncoated. […] Medium containing 10% FBS (0.6 ml) was placed into the lower chamber as a chemo attractant. The compound (final concentration of 5 μM) or a matching amount of DMSO was added to both chambers. After 24 h or 48 h the cells were fixed with −20° C. methanol for 15 min and then stained with Trypan blue for 5 min. Cells on the upper surface were removed using cotton swabs. Cells present on the underside of the membrane were photographed using an EVOS FL Cell Imaging System (Invitrogen, CA) and the images were thresholded for presentation and counting using Image J (National Institutes of Health, Bethesda, Md., SCR_003070). The assays involving MCF7 cells were identical except that they were performed 24 h post transfection.
# MDA-MB231 cells [3] = conditions: 24 or 48 h
# Description: as §6
# MDA-MB231 cells [4] = conditions: MDA-MB231, 5 μM T3Inh-1, 24 or 48 h
# Description: Proliferation assay. […] After 24, 48 or 72 h, the cells were released using trypsin and counted twice using a hemocytometer for 3 independent trials.
# ANGPTL3 = conditions: media of HEK cells transfected with Myc-ANGPTL3, 6 h
# Description: (§7) Immunoblotting. The FLAG-tagged FGF23, Myc-tagged ANGPTL3 with the T225G modification, and untagged ppGalNAc-T3 (cloned into PCDNA 3.0 using BamH1 sites) were transfected into HEK cells using the JetPEI transfection reagent (VWR International, Radnor, Pa., Cat #101-40N) according to the manufacturer's instructions. After 24 h, the medium was replaced with serum-free MEM containing the compound for 6 h. The medium and cells were then collected and, after trichloroacetic acid precipitation of the medium, analyzed by immunoblot using anti-FLAG antibody at 1:1000 or anti-Myc antibody at 1:2000 and then the peroxidase-coupled secondary antibodies. Emission was captured and quantified using a CHEMIDOC™ Touch Imaging System with Image Lab Software (BioRad, SCR_014210). For ppGalNAc-T3 determinations in different cell lines, cells were collected and lysed with 100 μl buffer (10 mM Tris-HCl (pH8.0), 1 mM EDTA (ACROS ORGANICS, Cat #446085000), 1% Triton X-100, 0.1% sodium deoxycholate (Fisher Scientific, Cat #BP349-100), 0.1% SDS (Fisher Scientific, Cat #BP166-500), 140 mM NaCl (Fisher Scientific, Cat #5271-3), 1 mM PMSF (Sigma-Aldrich, Cat #PMSF-RO). Then 15 μl of each lysate was analyzed by immunoblotting using the purchased anti-ppGalNAc-T3 and anti-α-tubulin antibodies.
# FGF23 [5] = system: FGF23
# Description: as §7
# [6] = mice, 25 and 50 mg/kg intraperitoneal, 1 or 2 injections
# Description: (§8) Animal analysis. Wild-type C57BL/6 six to eight week old mice were purchased from Charles River Laboratories International Inc. (Wilmington, Mass.). Protocols, handling, and care of the mice conformed to protocols approved by the Institutional Animal Care and Use Committee of Carnegie Mellon University (CMU IACUC protocol AS16-005). The compound was dissolved in DMSO at 25 and 50 mg/ml then further diluted with PEG400 (Hampton Research, CA, USA, HR2-603) to create 5 and 10 mg/ml stocks for injection. Control (vehicle only: 20% DMSO, 80% PEG400) and experimental (25 or 50 mg/kg compound) animals received either single or double (separated by 24 h) intraperitoneal injections and, 24 h after the last injection, a cardiac blood draw was carried out. The cleaved/intact FGF23 ratio was determined using ELISA kits from Immunotopics (Carlsbad, Va., USA, Cat #60-6800, Cat #60-6300) with cleaved equaling total minus intact.
# FGF23 [7] = conditions: mice; for ratio of cleaved/intact FGF23 in the blood: 1 or 2 injections, blood 24 h after last
# Description: as §8
# HeLa cells [8] = conditions: 6 h, 10 μM
smiles,measurement,setting,value
O=C(Nc1ccc(Nc2ccncc2)cc1)c1ccc(Nc2ccnc3ccccc23)cc1 [Compound T3Inh-1],activity towards the T2 sensor,ppGalNAc-T2,little or no activity
same,pIC50,ppGalNAc-T3,4.92
same,inhibition of ppGalNAc-T2,purified ppGalNAc-T2,undetectable
same,inhibition of ppGalNAc-T3 in the secondary screen,"purified ppGalNAc-T3; 50 μM compound, versus ppGalNAc-T2",strong and selective inhibitor
same,pIC50,"purified ppGalNAc-T3; read-out: IC50 of inhibition of ppGalNAc-T3, purified enzyme, in vitro glycosylation",5.15
same,pKi,purified ppGalNAc-T3; substrate varied: Peptide (EA2),5.00
same,Vmax,"purified ppGalNAc-T3; substrate varied: Peptide (EA2), 7.5 μM T3Inh-1",82%
same,Vmax,"purified ppGalNAc-T3; substrate varied: Peptide (EA2), 15 μM T3Inh-1",36%
same,pKi,purified ppGalNAc-T3; substrate varied: UDP-GalNAc,5.54
same,Vmax,"purified ppGalNAc-T3; substrate varied: UDP-GalNAc, 7.5 μM T3Inh-1",71%
same,Vmax,"purified ppGalNAc-T3; substrate varied: UDP-GalNAc, 15 μM T3Inh-1",56%
same,activity against ppGalNAc-T6,purified ppGalNAc-T6,lacked activity
same,pKd,"[1]; read-out: apparent Kd of direct binding, quenching at 324 nm",4.77
same,affinity of binding to GalNAc-T3,[1]; stated in words,low micromolar
same,staining intensity by lectin Concanavalin A (ConA),HeLa cells [2],did not affect
same,staining intensity by lectin Sambucus Nigra (SNA),HeLa cells [2],did not affect
same,staining intensity by lectin Vicia Villosa (VVA),HeLa cells [2],did not affect
same,staining intensity by lectin Wheat germ agglutinin (WGA),HeLa cells [2],did not affect
same,increase of invasion caused by ppGalNAc-T3 transfection,MCF7 cells,strongly blocked
same,inhibition of invasion,"MDA-MB231 cells [3]; 5 μM T3Inh-1, Matrigel-coated filters",98%
same,inhibition of migration,"MDA-MB231 cells [3]; 5 μM T3Inh-1, uncoated filters",> 80%
same,effect on cell proliferation,MDA-MB231 cells [4],no discernable effect
same,secreted intact ANGPTL3,ANGPTL3,remained high at all concentrations
same,intact and cleaved FGF23 in cell lysates,"FGF23 [5]; cell extracts, 6 h, also with 100 μM chloroquine",no change
same,half-max of increase in ratio of cleaved/intact FGF23,"FGF23 [5]; media of HEK cells co-expressing FGF23 and ppGalNAc-T3, 6 h",14 µM
same,secreted intact FGF23,"FGF23 [5]; media, 6 h, increasing concentrations",dose-dependent loss
same,effects on animal health,[6],no apparent ill effects
same,ratio of cleaved/intact FGF23 in the blood,FGF23 [7]; 25 mg/kg intraperitoneal,robust and statistically significant increase
same,ratio of cleaved/intact FGF23 in the blood,FGF23 [7]; 50 mg/kg intraperitoneal,robust and statistically significant increase
same,increase of level of proteolyzed C-terminal FGF23 fragment,FGF23 [7]; intraperitoneal injection,8 fold
same,HEK cell proliferation,"HEK cells; 0-50 μM, 24, 48, 72 h, cell counting",did not affect
same,toxicity,"HEK cells; HEK cells, continuous exposure 24, 48, 72 h",no toxicity
same,"localization or expression level of ppGalNAc-T3, ppGalNAc-T2 or any other Golgi marker tested",HeLa cells [8],no change
